# From patent US12419309B2, “Chemical composition for seed treatment” (Yara UK Limited, priority 2019, dated 2025)
# System: seeds of leguminous crops
# Assay: Liquid composition coated on seeds of leguminous crops, dried and sowed in soil
# Format: in vivo
# Conditions: monoethanolamine as component of the composition
# Excerpt: The liquid composition as disclosed herein was coated on seeds of leguminous crops and the seeds were dried and sowed in soil. The germination rate was increased as well as the number of nodules, the mass of roots and the amount of dry matter in the shoots.
smiles,measurement,value
NCCO [Monoethanolamine],Effect on the growth of nodules,no detrimental effect
